Here are results for 25 molecules from patent US20130005721A1, “INDOLIZINE INHIBITORS OF 5-LIPOXYGENASE” (PANMIRA PHARMACEUTICALS, LLC, priority 2009, published 2013).

This assay deals with human leukocytes (LTB4 production, calcium ionophore stimulated). Description: Human Leukocyte LTB4 Inhibition Assay. Type of assay: cell-based. The following applies: Leukocyte, LTB4 by ELISA, read-out: LTB4 HLA IC50. On the procedure:
Human Leukocyte LTB4 Inhibition Assay
A non-limiting example of a human leukocyte inhibition assay is as follows; Blood was drawn from consenting human volunteers into heparanized tubes and 3% dextran 0.9% saline ⅓ rd volume added. After sedimentation of red blood cells a hypotonic lysis of remaining red blood cells was performed and leukocytes sedimented at 1200 rpm. The pellet was resuspended at 1.25×10^5 cells/ml and aliquoted into wells containing 1 μL 100% DMSO (vehicle) or 2.5 μL drug in 100% DMSO. Samples were incubated for 5 minutes at 37° C. and 2 μL calcium ionophore […] (from a 50 mM DMSO stock diluted just prior to the assay in Hanks balanced salt solution (Invitrogen)) to 1.25 mM) was added, solutions mixed and incubated for 30 minutes at 37° C. Samples were centrifuged at 1,200 rpm (−200×g) for 10 minutes at 4° C., plasma removed and a 1:4 dilution assayed for LTB4 concentration using ELISA (Assay Designs). Drug concentrations to achieve 50% inhibition (IC50's) of vehicle LTB4 were determined by nonlinear regression (Graphpad Prism) of % inhibition versus log drug concentration.
(In general: In an ELISA, binding on a coated surface is turned into a signal by an enzyme label.)

Molecules are shown by their SMILES. Some results are limits rather than exact numbers.

For the molecule `CCOC(=O)c1cc2cc(Cn3cc(C(O)(CC)C(F)(F)F)nn3)ccn2c1Cl` (single isomer, unassigned) [Compound 1-87, 3-Chloro-7-[4-(1-hydroxy-1-trifluoromethyl-propyl)-[1,2,3]triazol-1-ylmethyl]-indolizine-2-carboxylic acid ethyl ester], the half-maximal inhibitory concentration (IC50) (in general, the concentration that inhibits the measured activity by half) was below 300 nM.
As for `CCOC(=O)c1cc2cc(Cn3cc(C(O)(CC)C(F)(F)F)nn3)ccn2c1-c1ccc(Cl)cc1` (stereo not shown) [Compound 1-27, 3-(4-Chloro-phenyl)-7-[4-(1-hydroxy-1-trifluoromethyl-propyl)-[1,2,3]triazol-1-ylmethyl]-indolizine-2-carboxylic acid ethyl ester], the figure is below 300 nM; as for `CCC(O)(c1cn(Cc2ccn3c(-c4ccc(F)cc4)c(C(=O)N4CCS(=O)(=O)C4)cc3c2)nn1)C(F)(F)F` (stereo not shown) [Compound 1-50, (1,1-Dioxo-1λ^6-thiazolidin-3-yl)-{3-(4-fluoro-phenyl)-7-[4-(1-hydroxy-1-trifluoromethyl-propyl)-[1,2,3]triazol-1-ylmethyl]-indolizin-2-yl}-methanone], above 1000 nM; as for `CCC(O)(c1cn(Cc2ccn3c(-c4ccc(F)cc4)c(/C=C/C(N)=O)cc3c2)nn1)C(F)(F)F` (stereo not shown) [Compound 1-43, (E)-3-{3-(4-Fluoro-phenyl)-7-[4-(1-hydroxy-1-trifluoromethyl-propyl)-[1,2,3]triazol-1-ylmethyl]-indolizin-2-yl}-acrylamide], below 300 nM.
Consider `CCC(OC(=O)c1ccc([N+](=O)[O-])cc1)(c1cn(Cc2ccn3c(-c4ccc(OC)nc4)c(C(N)=O)cc3c2)nn1)C(F)(F)F` (single isomer, unassigned) [Compound 1-83, 4-Nitro-benzoic acid 1-{1-[2-carbamoyl-3-(6-methoxy-pyridin-3-yl)-indolizin-7-ylmethyl]-1H-[1,2,3]triazol-4-yl}-1-trifluoromethyl-propyl ester], for which the IC50 was in the range of 300 to 1000 nM.
Take `CCOC(=O)c1nc2cc(Cn3cc(C(O)(CC)C(F)(F)F)nn3)ccn2c1-c1ccc(F)cc1` (stereo not shown) [Compound 1-13, 3-(4-Fluoro-phenyl)-7-[4-(1-hydroxy-1-trifluoromethyl-propyl)-[1,2,3]triazol-1-ylmethyl]-imidazo[1,2-a]pyridine-2-carboxylic acid ethyl ester]: the IC50 was below 300 nM.
Next, `CCC(O)(c1cn(Cc2ccn3c(-c4ccc(F)cc4)c(/C=C/C(=O)O)cc3c2)nn1)C(F)(F)F` (stereo not shown) [Compound 1-41, (E)-3-{3-(4-Fluoro-phenyl)-7-[4-(1-hydroxy-1-trifluoromethyl-propyl)-[1,2,3]triazol-1-ylmethyl]-indolizin-2-yl}-acrylic acid]: 300 to 1000 nM; `CCOC(=O)c1cc2cc(Cn3cc(C(O)(CC)C(F)(F)F)nn3)ccn2c1-c1cccnc1` (stereo not shown) [Compound 1-24, 7-[4-(1-Hydroxy-1-trifluoromethyl-propyl)-[1,2,3]triazol-1-ylmethyl]-3-pyridin-3-yl-indolizine-2-carboxylic acid ethyl ester]: below 300 nM; `CCC(O)(c1cn(Cc2ccn3c(-c4ccc(=O)n(C)c4)c(C(N)=O)cc3c2)nn1)C(F)(F)F` (stereo not shown) [Compound 1-68, 7-[4-(1-Hydroxy-1-trifluoromethyl-propyl)-[1,2,3]triazol-1-ylmethyl]-3-(1-methyl-6-oxo-1,6-dihydro-pyridin-3-yl)-indolizine-2-carboxylic acid amide]: above 1000 nM.
Regarding `CCC(O)(c1cn(Cc2ccn3c(-c4ccc(F)cc4)c(C#N)cc3c2)nn1)C(F)(F)F` (stereo not shown) [Compound 1-16, 3-(4-Fluoro-phenyl)-7-[4-(1-hydroxy-1-trifluoromethyl-propyl)-[1,2,3]triazol-1-ylmethyl]-indolizine-2-carbonitrile], the IC50 was below 300 nM.
As for `CCC(O)(c1nnc(NCc2ccn3c(-c4ccc(F)cc4)c(C(N)=O)cc3c2)o1)C(F)(F)F` (stereo not shown) [Compound 1-19, 3-(4-Fluoro-phenyl)-7-{[5-(1-hydroxy-1-trifluoromethyl-propyl)-[1,3,4]oxadiazol-2-ylamino]-methyl}-indolizine-2-carboxylic acid amide], the figure is below 300 nM; as for `CCC(O)(c1cn(Cc2ccn3c(-c4ccc(F)cc4)c(CNCCC#N)cc3c2)nn1)C(F)(F)F` (stereo not shown) [Compound 1-42, 3-({3-(4-Fluoro-phenyl)-7-[4-(1-hydroxy-1-trifluoromethyl-propyl)-[1,2,3]triazol-1-ylmethyl]-indolizin-2-ylmethyl}-amino)-propionitrile], below 300 nM; as for `CCOC(=O)c1cc2cc(Cn3cc(C(CC)(OC(=O)c4ccc([N+](=O)[O-])cc4)C(F)(F)F)nn3)ccn2c1-c1ccc(OC)nc1` (single isomer, unassigned) [Compound 1-85, 3-(6-Methoxy-pyridin-3-yl)-7-{4-[1-(4-nitro-benzoyloxy)-1-trifluoromethyl-propyl]-[1,2,3]triazol-1-ylmethyl}-indolizine-2-carboxylic acid ethyl ester], 300 to 1000 nM.
As for `CCOc1ccc(-c2c(C(N)=O)cc3cc(Cn4cc(C(O)(CC)C(F)(F)F)nn4)ccn23)cn1` (stereo not shown) [Compound 1-58, 3-(6-Ethoxy-pyridin-3-yl)-7-[4-(1-hydroxy-1-trifluoromethyl-propyl)-[1,2,3]triazol-1-ylmethyl]-indolizine-2-carboxylic acid amide], the figure is above 1000 nM; as for `CCOC(=O)c1cc2cc(Cn3cc(C(O)(CC)C(F)(F)F)nn3)ccn2c1-c1ccnc(C)c1` (stereo not shown) [Compound 1-63, 7-[4-(1-Hydroxy-1-trifluoromethyl-propyl)-[1,2,3]triazol-1-ylmethyl]-3-(2-methyl-pyridin-4-yl)-indolizine-2-carboxylic acid ethyl ester], below 300 nM; as for `CCC(O)(c1cn(Cc2ccn3c(-c4ccc(F)cc4)c(CNCCC(=O)O)cc3c2)nn1)C(F)(F)F` (stereo not shown) [Compound 1-40, 3-({3-(4-Fluoro-phenyl)-7-[4-(1-hydroxy-1-trifluoromethyl-propyl)-[1,2,3]triazol-1-ylmethyl]-indolizin-2-ylmethyl}-amino)-propionic acid], above 1000 nM.
As for `CCC(OC)(c1cn(Cc2ccn3c(-c4ccc(F)cc4)c(COC)cc3c2)nn1)C(F)(F)F` (stereo not shown) [Compound 1-45, 3-(4-Fluoro-phenyl)-2-methoxymethyl-7-[4-(1-methoxy-1-trifluoromethyl-propyl)-[1,2,3]triazol-1-ylmethyl]-indolizine], the figure is below 300 nM.
As for `CCC(O)(c1cn(Cc2ccn3c(-c4ccc(F)cc4)c(CS(C)(=O)=O)cc3c2)nn1)C(F)(F)F` (stereo not shown) [Compound 1-34, 1,1,1-Trifluoro-2-{1-[3-(4-fluoro-phenyl)-2-methanesulfonylmethyl-indolizin-7-ylmethyl]-1H-[1,2,3]triazol-4-yl}-butan-2-ol], the IC50 was below 300 nM.
As to `CCOC(=O)c1cc2cc(Sc3ncc(C(O)(CC)C(F)(F)F)s3)ccn2c1` (stereo not shown) [Compound 1-1, 7-[5-(1-Hydroxy-1-trifluoromethyl-propyl)-thiazol-2-ylsulfanyl]-indolizine-2-carboxylic acid ethyl ester], the IC50 is below 300 nM.
As to `CCC(O)(c1cn(Cc2ccn3c(C(C)=O)c(C(N)=O)cc3c2)nn1)C(F)(F)F` (stereo not shown) [Compound 1-67, 3-Acetyl-7-[4-(1-hydroxy-1-trifluoromethyl-propyl)-[1,2,3]triazol-1-ylmethyl]-indolizine-2-carboxylic acid amide], the IC50 was above 1000 nM.
On to `CCOC(=O)c1c(C(=O)C(F)(F)F)c2cc(Cn3cc(C(CC)(OC(=O)c4ccc([N+](=O)[O-])cc4)C(F)(F)F)nn3)ccn2c1-c1ccc(OC)nc1` (single isomer, unassigned) [Compound 1-84, 3-(6-Methoxy-pyridin-3-yl)-7-{4-[1-(4-nitro-benzoyloxy)-1-trifluoromethyl-propyl]-[1,2,3]triazol-1-ylmethyl}-1-(2,2,2-trifluoro-acetyl)-indolizine-2-carboxylic acid ethyl ester], for which the IC50 lay in the range of 300 to 1000 nM.
Next, `CCOC(=O)CCNCc1cc2cc(Cn3cc(C(O)(CC)C(F)(F)F)nn3)ccn2c1-c1ccc(F)cc1` (stereo not shown) [Compound 1-37, 3-({3-(4-Fluoro-phenyl)-7-[4-(1-hydroxy-1-trifluoromethyl-propyl)-[1,2,3]triazol-1-ylmethyl]-indolizin-2-ylmethyl}-amino)-propionic acid ethyl ester]: below 300 nM; `CCC(O)(c1cn(Cc2ccn3c(-c4ccc(F)cc4)c(CN4CCOCC4)cc3c2)nn1)C(F)(F)F` (stereo not shown) [Compound 1-38, 1,1,1-Trifluoro-2-{1-[3-(4-fluoro-phenyl)-2-morpholin-4-ylmethyl-indolizin-7-ylmethyl]-1H-[1,2,3]triazol-4-yl}-butan-2-ol]: 300 to 1000 nM.
Next, `CCOC(=O)c1cc2cc(Cn3cc(C(O)(CC)C(F)(F)F)nn3)ccn2c1-c1ccc(C)nc1` (stereo not shown) [Compound 1-69, 7-[4-(1-Hydroxy-1-trifluoromethyl-propyl)-[1,2,3]triazol-1-ylmethyl]-3-(6-methyl-pyridin-3-yl)-indolizine-2-carboxylic acid ethyl ester]: below 300 nM; `CCOC(=O)c1cc2cc(Cn3cc(C(O)(CC)C(F)(F)F)nn3)ccn2c1-c1ccc(OCC)nc1` (stereo not shown) [Compound 1-56, 3-(6-Ethoxy-pyridin-3-yl)-7-[4-(1-hydroxy-1-trifluoromethyl-propyl)-[1,2,3]triazol-1-ylmethyl]-indolizine-2-carboxylic acid ethyl ester]: below 300 nM.
